Test system: Sprague-Dawley rats
Test: Rat EEG assay (wake, REM, non-REM states)
Assay type: in vivo
Details: for number of wake and non-REM sleep bouts / wake bout duration: hourly bins, EEG; for wake promotion: male Sprague-Dawley rats, dosed in middle of inactive period, first 6 hours post-dosing; for time spent in REM sleep / time spent in non-REM sleep / time spent in wake: relative to vehicle treated animals, 6 hour recording; for normalized power in the 40-60 Hz range (EEG spectral analysis): wake EEG spectra, shift to higher frequencies
Method: The rat EEG assay was designed to measure electrical signals from the brain as a proxy for in vivo biological activity at the H3 receptor.
Specifically, animals were housed in a temperature-controlled recording room under a 12 hour/12 hour light/dark cycle, with food and water available ad libitum. Eight male Sprague-Dawley rats were implanted with chronic recording devices for continuous recordings of electroencephalograph (EEG) via telemetry (Data Sciences Inc). A repeated measures design was employed in which each rat received eight separate dosings of the compound being tested with a minimum of 3 days between doses. […] EEG data were scored visually in 10 second epochs for wake, REM, and non-REM states. Scored data were analyzed and expressed as time spent in each state per hour. Cumulative time spent in wake, non-REM, and REM states were calculated for the 6 hour recording period. To determine whether any of the pharmacological treatments affected the consolidation of behavioral states, the duration and number of bouts for each state were calculated in hourly bins. A “bout” consisted of a minimum of two consecutive 10-second epochs of a given state and ended with any single state change epoch. The EEG spectra during wake and non-REM sleep were analyzed offline with a fast Fourier transform algorithm (NeuroScore software, Data Sciences Inc) on all epochs without a visually detectable artifact. Wake EEG spectra were analyzed in 1 Hz bins. Data were analyzed using two-way repeated-measures ANOVA.
For both compounds, there was an increase in the time spent in wake, a decrease in the time spent in non-REM sleep, and no change in the time spent in REM sleep relative to vehicle treated animals.

`c1cn2cc(-c3ccc4c(c3)nc3n4CCN4CCCC[C@@H]4C3)ccc2n1` (single isomer, unassigned) [Compound 48] was tested, and the “number of wake and non-REM sleep bouts” value was “decrease”, the wake bout duration was “increase” and the wake promotion was “wake promoting”. The “time spent in REM sleep” value was “no change”, the “time spent in non-REM sleep” value was “decrease” and the “time spent in wake” value was “increase”. The “normalized power in the 40-60 Hz range (EEG spectral analysis)” value was “increase”.

`c1cn2cc(-c3ccc4c(c3)nc3n4CCCN(C4CCC4)CC3)ccc2n1` [Compound 59, 3-cyclobutyl-10-(imidazo[1,2-a]pyridin-6-yl)-1,2,3,4,5,6-hexahydrobenzo[4,5]imidazo[1,2-a][1,5]diazocine] was tested, and the “number of wake and non-REM sleep bouts” value was “decrease”, the wake bout duration was “increase” and the wake promotion was “wake promoting”. For the same compound, the “time spent in REM sleep” value was “no change”, the “time spent in non-REM sleep” value was “decrease” and the “time spent in wake” value was “increase”. The “normalized power in the 40-60 Hz range (EEG spectral analysis)” value was “increase”.

— patent publication US20120172350A1, “HISTAMINE H3 INVERSE AGONISTS AND ANTAGONISTS AND METHODS OF USE THEREOF” (SUNOVION PHARMACEUTICALS INC., priority 2009, published 2012)
